These compounds were tested against T1, human TRPM2 (Homo sapiens, UniProt O94759) (assay: whole-cell patch clamp, current inhibition). Conditions: not given.
T1 construct: whole-cell patch clamp
Type: cell-based

T1 sequence (O94759 whole entry): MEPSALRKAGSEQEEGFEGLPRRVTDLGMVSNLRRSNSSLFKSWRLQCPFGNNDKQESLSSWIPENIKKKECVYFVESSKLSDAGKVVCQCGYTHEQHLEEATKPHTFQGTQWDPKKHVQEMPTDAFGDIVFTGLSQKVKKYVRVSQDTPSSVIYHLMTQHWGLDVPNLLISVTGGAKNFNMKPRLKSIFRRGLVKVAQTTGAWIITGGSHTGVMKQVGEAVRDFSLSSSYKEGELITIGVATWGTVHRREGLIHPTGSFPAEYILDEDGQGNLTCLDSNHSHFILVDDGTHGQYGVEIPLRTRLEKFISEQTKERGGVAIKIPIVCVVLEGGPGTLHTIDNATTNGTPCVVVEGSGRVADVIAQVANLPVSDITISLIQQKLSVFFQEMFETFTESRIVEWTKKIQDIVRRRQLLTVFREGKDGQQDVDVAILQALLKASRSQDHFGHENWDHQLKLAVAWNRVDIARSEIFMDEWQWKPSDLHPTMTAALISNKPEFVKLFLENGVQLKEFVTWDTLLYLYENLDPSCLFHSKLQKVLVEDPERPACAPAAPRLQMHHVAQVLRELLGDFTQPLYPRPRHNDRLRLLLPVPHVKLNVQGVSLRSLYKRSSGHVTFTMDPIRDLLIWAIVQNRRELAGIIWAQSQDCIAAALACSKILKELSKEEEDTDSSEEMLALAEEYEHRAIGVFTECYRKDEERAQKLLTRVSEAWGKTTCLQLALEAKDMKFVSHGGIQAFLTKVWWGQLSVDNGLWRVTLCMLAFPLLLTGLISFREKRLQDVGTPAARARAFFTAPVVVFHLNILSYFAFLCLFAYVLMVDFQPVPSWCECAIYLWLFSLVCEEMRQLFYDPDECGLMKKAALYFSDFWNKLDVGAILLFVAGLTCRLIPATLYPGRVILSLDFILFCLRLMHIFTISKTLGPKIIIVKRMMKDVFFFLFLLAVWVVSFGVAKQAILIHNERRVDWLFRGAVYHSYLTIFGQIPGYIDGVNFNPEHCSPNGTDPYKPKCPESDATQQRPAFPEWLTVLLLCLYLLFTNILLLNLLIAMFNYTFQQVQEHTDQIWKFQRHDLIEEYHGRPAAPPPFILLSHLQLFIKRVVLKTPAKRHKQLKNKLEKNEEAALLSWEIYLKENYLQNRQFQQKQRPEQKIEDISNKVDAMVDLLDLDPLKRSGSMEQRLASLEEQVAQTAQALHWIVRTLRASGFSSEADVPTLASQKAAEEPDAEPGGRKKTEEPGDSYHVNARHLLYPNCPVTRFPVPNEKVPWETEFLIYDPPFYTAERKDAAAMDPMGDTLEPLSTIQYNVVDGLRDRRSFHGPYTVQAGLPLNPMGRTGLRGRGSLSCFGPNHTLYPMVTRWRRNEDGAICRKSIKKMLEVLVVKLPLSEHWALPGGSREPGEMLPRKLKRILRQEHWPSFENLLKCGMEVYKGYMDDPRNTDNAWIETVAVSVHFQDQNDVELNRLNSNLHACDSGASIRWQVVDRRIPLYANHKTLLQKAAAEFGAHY

| Structure (SMILES) | IC50 |
| --- | --- |
| Nc1nc(N)c2ncn([C@@H]3O[C@H](COP(=O)(O)C(F)(F)P(=O)(O)OC[C@H]4OC(O)[C@H](O)[C@@H]4O)[C@@H](O)[C@H]3O)c2n1 (stereo partly drawn) [10k] | > 100 µM |
| COC1O[C@H](COP(=O)(O)C(F)(F)P(=O)(O)OC[C@H]2O[C@@H](n3cnc4c(N)ncnc43)[C@@H]3OC(C)(C)O[C@@H]32)[C@H]2OC(C)(C)O[C@@H]12 (stereo partly drawn) [7h] | > 100 µM |
| COC1O[C@H](COP(=O)(O)CP(=O)(O)OC[C@H]2O[C@@H](n3cnc4c(N)nc(N)nc43)[C@@H]3OC(C)(C)O[C@@H]32)[C@H]2OC(C)(C)O[C@@H]12 (stereo partly drawn) [7e] | > 100 µM |
| COC1O[C@H](COP(=O)(O)C(F)(F)P(=O)(O)OC[C@H]2O[C@@H](n3cnc4c(N)nc(N)nc43)[C@@H]3OC(C)(C)O[C@@H]32)[C@H]2OC(C)(C)O[C@@H]12 (stereo partly drawn) [7k] | > 100 µM |
| COC1O[C@H](COP(=O)(O)CP(=O)(O)OC[C@H]2O[C@@H](n3cnc4c(N)ncnc43)[C@H](O)[C@@H]2O)[C@H]2OC(C)(C)O[C@@H]12 (stereo partly drawn) [8a, 1″‐O‐methyl‐2″,3″‐O‐isopropylidene‐5′‐methylenediphosphoribose adenosine] | 5.4 µM |
| Nc1nc(I)nc2c1ncn2[C@@H]1O[C@H](COP(=O)(O)C(F)(F)P(=O)(O)OC[C@H]2OC(O)[C@H](O)[C@@H]2O)[C@@H](O)[C@H]1O (stereo partly drawn) [10o] | > 100 µM |
| Nc1nc(Br)nc2c1ncn2[C@@H]1O[C@H](COP(=O)(O)CP(=O)(O)OC[C@H]2OC(O)[C@H](O)[C@@H]2O)[C@@H](O)[C@H]1O (stereo partly drawn) [10c] | > 100 µM |
| COC1O[C@H](COP(=O)(O)CP(=O)(O)OC[C@H]2O[C@@H](n3cnc4c(N)nc(Cl)nc43)[C@H](O)[C@@H]2O)[C@H]2OC(C)(C)O[C@@H]12 (stereo partly drawn) [8b] | > 100 µM |
| COC1O[C@H](COP(=O)(O)C(F)(F)P(=O)(O)OC[C@H]2O[C@@H](n3cnc4c(N)nc(Cl)nc43)[C@H](O)[C@@H]2O)[C@H]2OC(C)(C)O[C@@H]12 (stereo partly drawn) [8c] | > 100 µM |
| Nc1nc(N)c2ncn([C@@H]3O[C@H](COP(=O)(O)CP(=O)(O)OC[C@H]4OC(O)[C@H](O)[C@@H]4O)[C@@H](O)[C@H]3O)c2n1 (stereo partly drawn) [10e] | > 100 µM |
| COC1O[C@H](COP(=O)(O)OP(=O)(O)OC[C@H]2O[C@@H](n3cnc4c(N)ncnc43)[C@@H]3OC(C)(C)O[C@@H]32)[C@H]2OC(C)(C)O[C@@H]12 (stereo partly drawn) [7l] | > 100 µM |
| COC1O[C@H](COP(=O)(O)C(F)(F)P(=O)(O)OC[C@H]2O[C@@H](n3cnc4c(N)nc(Cl)nc43)[C@@H]3OC(C)(C)O[C@@H]32)[C@H]2OC(C)(C)O[C@@H]12 (stereo partly drawn) [7i] | 5.7 µM |
| COC1O[C@H](COP(=O)(O)C(F)(F)P(=O)(O)OC[C@H]2O[C@@H](n3cnc4c(N)nc(I)nc43)[C@H](O)[C@@H]2O)[C@@H](O)[C@H]1O (stereo partly drawn) [9b] | > 100 µM |
| COC1O[C@H](COP(=O)(O)CP(=O)(O)OC[C@H]2O[C@@H](n3cnc4c(N)ncnc43)[C@H](OC)[C@@H]2O)[C@H]2OC(C)(C)O[C@@H]12 (stereo partly drawn) [compound 13, 1″‐O‐methyl‐2″,3″‐O‐isopropylidene‐2′‐methoxy‐5′‐methylenediphoribose adenosine] | > 100 µM |
| COc1nc(N)c2ncn([C@@H]3O[C@H](COP(=O)(O)CP(=O)(O)OC[C@H]4OC(O)[C@H](O)[C@@H]4O)[C@@H](O)[C@H]3O)c2n1 (stereo partly drawn) [10d] | > 100 µM |
| CNc1ncnc2c1ncn2[C@@H]1O[C@H](COP(=O)(O)CP(=O)(O)OC[C@H]2OC(OC)[C@@H]3OC(C)(C)O[C@H]23)[C@H]2OC(C)(C)O[C@H]21 (stereo partly drawn) [7f] | > 100 µM |
| CNc1ncnc2c1ncn2[C@@H]1O[C@H](COP(=O)(O)CP(=O)(O)OC[C@H]2OC(O)[C@H](O)[C@@H]2O)[C@@H](O)[C@H]1O (stereo partly drawn) [10f] | > 100 µM |
| COC1O[C@H](COP(=O)(O)CP(=O)(O)OC[C@H]2O[C@@H](n3cnc4c(N)nc(Br)nc43)[C@@H]3OC(C)(C)O[C@@H]32)[C@H]2OC(C)(C)O[C@@H]12 (stereo partly drawn) [7c] | > 100 µM |

| Structure (SMILES) | IC50 |
| --- | --- |
| COC1O[C@H](COP(=O)(O)C(F)(F)P(=O)(O)OC[C@H]2O[C@@H](n3cnc4c(N)nc(Br)nc43)[C@H](O)[C@@H]2O)[C@@H](O)[C@H]1O (stereo partly drawn) [9a, 1″‐O‐methyl‐difluoromethylenediphosphoribose‐2‐bromoadenosine] | > 100 µM |
| COC1O[C@H](COP(=O)(O)CP(=O)(O)OC[C@H]2O[C@@H](n3cnc4c(N)nc(I)nc43)[C@@H]3OC(C)(C)O[C@@H]32)[C@H]2OC(C)(C)O[C@@H]12 (stereo partly drawn) [7m] | > 100 µM |
| CO[C@@H]1[C@H](O)[C@@H](COP(=O)(O)CP(=O)(O)OC[C@H]2OC(O)[C@H](O)[C@@H]2O)O[C@H]1n1cnc2c(N)ncnc21 (stereo partly drawn) [compound 14, 2′‐methoxy‐5′‐methylenediphoribose adenosine] | > 100 µM |
| Nc1nc(Cl)nc2c1ncn2[C@@H]1O[C@H](COP(=O)(O)CP(=O)(O)OC[C@H]2OC(O)[C@H](O)[C@@H]2O)[C@@H](O)[C@H]1O (stereo partly drawn) [10b] | > 100 µM |
| COC1O[C@H](COP(=O)(O)C(F)(F)P(=O)(O)OC[C@H]2O[C@@H](n3cnc4c(N)nc(Br)nc43)[C@@H]3OC(C)(C)O[C@@H]32)[C@H]2OC(C)(C)O[C@@H]12 (stereo partly drawn) [7n, 1″‐O‐methyl‐2″,2′,3″,3′‐O‐isopropylidene‐5′‐difluoromethylenediphosphoribose‐2‐bromoadenosine] | > 100 µM |
| CN(C)c1ncnc2c1ncn2[C@@H]1O[C@H](COP(=O)(O)CP(=O)(O)OC[C@H]2OC(O)[C@H](O)[C@@H]2O)[C@@H](O)[C@H]1O (stereo partly drawn) [10g] | > 100 µM |
| Nc1nc(I)nc2c1ncn2[C@@H]1O[C@H](COP(=O)(O)CP(=O)(O)OC[C@H]2OC(O)[C@H](O)[C@@H]2O)[C@@H](O)[C@H]1O (stereo partly drawn) [10m] | > 100 µM |
| Nc1ncnc2c1ncn2[C@@H]1O[C@H](COP(=O)(O)C(F)(F)P(=O)(O)OC[C@H]2OC(O)[C@H](O)[C@@H]2O)[C@@H](O)[C@H]1O (stereo partly drawn) [10h] | > 100 µM |
| COC1O[C@H](COP(=O)(O)C(F)(F)P(=O)(O)OC[C@H]2O[C@@H](n3cnc4c(N)nc(I)nc43)[C@H](O)[C@@H]2O)[C@H]2OC(C)(C)O[C@@H]12 (stereo partly drawn) [8e] | > 100 µM |
| COC1O[C@H](COP(=O)(O)CP(=O)(O)OC[C@H]2O[C@@H](n3cnc4c(N)nc(Cl)nc43)[C@@H]3OC(C)(C)O[C@@H]32)[C@H]2OC(C)(C)O[C@@H]12 (stereo partly drawn) [7b] | > 100 µM |
| COC1O[C@H](COP(=O)(O)CP(=O)(O)OC[C@H]2O[C@@H](n3cnc4c(N(C)C)ncnc43)[C@@H]3OC(C)(C)O[C@@H]32)[C@H]2OC(C)(C)O[C@@H]12 (stereo partly drawn) [7g] | > 100 µM |
| COc1nc(N)c2ncn([C@@H]3O[C@H](COP(=O)(O)CP(=O)(O)OC[C@H]4OC(OC)[C@@H]5OC(C)(C)O[C@H]45)[C@H]4OC(C)(C)O[C@H]43)c2n1 (stereo partly drawn) [7d] | > 100 µM |
| COC1O[C@H](COP(=O)(O)C(F)(F)P(=O)(O)OC[C@H]2O[C@@H](n3cnc4c(N)nc(Br)nc43)[C@H](O)[C@@H]2O)[C@H]2OC(C)(C)O[C@@H]12 (stereo partly drawn) [8d, 1″‐O‐methyl‐2″,3″‐O‐isopropylidene‐5′‐difluoromethylenediphosphoribose‐2‐bromoadenosine] | > 100 µM |
| COc1nc(N)c2ncn([C@@H]3O[C@H](COP(=O)(O)C(F)(F)P(=O)(O)OC[C@H]4OC(OC)[C@@H]5OC(C)(C)O[C@H]45)[C@H]4OC(C)(C)O[C@H]43)c2n1 (stereo partly drawn) [7j] | > 100 µM |
| Nc1nc(Cl)nc2c1ncn2[C@@H]1O[C@H](COP(=O)(O)C(F)(F)P(=O)(O)OC[C@H]2OC(O)[C@H](O)[C@@H]2O)[C@@H](O)[C@H]1O (stereo partly drawn) [10i] | > 100 µM |
| COC1O[C@H](COP(=O)(O)CP(=O)(O)OC[C@H]2O[C@@H](n3cnc4c(N)ncnc43)[C@@H]3OC(C)(C)O[C@@H]32)[C@H]2OC(C)(C)O[C@@H]12 (stereo partly drawn) [7a, 1″‐O‐methyl‐2″,2′,3″,3′‐O‐isopropylidene‐5′‐methylenediphoribose adenosine] | > 100 µM |
| COc1nc(N)c2ncn([C@@H]3O[C@H](COP(=O)(O)C(F)(F)P(=O)(O)OC[C@H]4OC(O)[C@H](O)[C@@H]4O)[C@@H](O)[C@H]3O)c2n1 (stereo partly drawn) [10j] | > 100 µM |
| COC1O[C@H](COP(=O)(O)C(F)(F)P(=O)(O)OC[C@H]2O[C@@H](n3cnc4c(N)nc(I)nc43)[C@@H]3OC(C)(C)O[C@@H]32)[C@H]2OC(C)(C)O[C@@H]12 (stereo partly drawn) [7o] | > 100 µM |

Same assay, conditions: compound in intracellular (pipette) solution with 0.1 mM ADPR as activator; room temperature; pH 7.3 inside, 7.4 outside

| Structure (SMILES) | IC50 |
| --- | --- |
| Nc1ncnc2c1ncn2[C@@H]1O[C@H](COP(=O)(O)CP(=O)(O)OC[C@H]2OC(O)[C@H](O)[C@@H]2O)[C@@H](O)[C@H]1O (stereo partly drawn) [10a, methylenediphosphoribose adenosine] | > 100 µM |
| Nc1nc(Br)nc2c1ncn2[C@@H]1O[C@H](COP(=O)(O)C(F)(F)P(=O)(O)OC[C@H]2OC(O)[C@H](O)[C@@H]2O)[C@@H](O)[C@H]1O (stereo partly drawn) [10n, difluoromethylenediphosphoribose‐2‐bromoadenosine] | > 100 µM |

Same assay, conditions: compound in intracellular solution with 0.1 mM ADPR; drawn structure is ADPR itself, the channel activator

| Structure (SMILES) | IC50 |
| --- | --- |
| Nc1ncnc2c1ncn2[C@@H]1O[C@H](COP(=O)(O)OP(=O)(O)OC[C@H]2OC(O)[C@H](O)[C@@H]2O)[C@@H](O)[C@H]1O (stereo partly drawn) [10l] | > 100 µM |
